Square brackets hold non-standard residues; d marks the D form. Peptide text beside a SMILES is read from it. * marks the point of attachment. His(Trt) = N[C@@H](Cc1cn(C(c2ccccc2)(c2ccccc2)c2ccccc2)cn1)C(=O)O; dHis(Trt) = N[C@H](Cc1cn(C(c2ccccc2)(c2ccccc2)c2ccccc2)cn1)C(=O)O; His(τ-CHPh2) = N[C@@H](Cc1cn(C(c2ccccc2)c2ccccc2)cn1)C(=O)O; Tyr(3-NO2) = N[C@@H](Cc1ccc(O)c([N+](=O)[O-])c1)C(=O)O; Biotin = O=C1N[C@H]2[C@H](CS[C@H]2CCCCC(=O)*)N1; Bip = N[C@@H](Cc1ccc(-c2ccccc2)cc1)C(=O)O; dPhe(4-Me) = Cc1ccc(C[C@@H](N)C(=O)O)cc1; Myristoyl = CCCCCCCCCCCCCC(=O)*; Octanoyl = CCCCCCCC(=O)*; Boc = CC(C)(C)OC(=O)*
target: T1, GPR39 (Homo sapiens, UniProt O43194); assay: luciferase assay system (SRE luciferase reporter gene, CV-1 cells expressing GPR39); assay type: cell-based; design: expressed in transfected cells; host or cells: CV-1 fibroblast cell line (Korea Cell Line Bank), adenoviral transduction at 50 MOI; settings: not given
T1 sequence (O43194 1-453): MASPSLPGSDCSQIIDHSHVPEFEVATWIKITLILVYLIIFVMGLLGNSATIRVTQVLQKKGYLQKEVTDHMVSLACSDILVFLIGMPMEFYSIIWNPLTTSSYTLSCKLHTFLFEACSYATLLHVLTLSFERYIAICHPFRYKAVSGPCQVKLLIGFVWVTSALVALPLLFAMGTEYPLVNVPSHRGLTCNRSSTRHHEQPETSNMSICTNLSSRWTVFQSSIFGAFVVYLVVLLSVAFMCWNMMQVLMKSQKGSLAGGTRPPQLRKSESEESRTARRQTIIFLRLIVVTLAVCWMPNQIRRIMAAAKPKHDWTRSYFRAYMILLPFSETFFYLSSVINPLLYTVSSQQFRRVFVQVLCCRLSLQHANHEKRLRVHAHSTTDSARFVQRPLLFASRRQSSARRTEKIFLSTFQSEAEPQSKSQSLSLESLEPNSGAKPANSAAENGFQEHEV

In order of rising “ECmax (−fold induction over basal)” value:
1. CCCCCCCC(=O)NCCCC[C@H](NC(=O)[C@@H](N)Cc1cn(-c2ccccc2)c(-c2ccccc2)n1)C(=O)N[C@H](Cc1ccc(C)cc1)C(=O)N[C@@H](Cc1ccc(O)cc1)C(=O)O [HKFY-59, ((R)-2-((S)-2-((S)-2-amino-3-(1,2-diphenyl-1H-imidazol-4-yl)propanamido)-6-octanamidohexanamido)-3-(p-tolyl)propanoyl)-L-tyrosine]  6.76 ± 2.2 fold induction over basal
2. CCCCCCCC(=O)NCCCC[C@H](NC(=O)[C@@H](N)Cc1cn(CC2c3ccccc3-c3ccccc32)cn1)C(=O)N[C@@H](Cc1ccccc1)C(=O)N[C@@H](Cc1ccc(O)cc1)C(=O)O [HKFY-18]  10 ± 1.48 fold induction over basal
3. CCCCCCCC(=O)NCCCC[C@H](NC(=O)[C@@H](N)Cc1cn(C(c2ccccc2)c2ccccc2)cn1)C(=O)N[C@H](Cc1ccc(C)cc1)C(=O)N[C@@H](Cc1ccc(O)c([N+](=O)[O-])c1)C(=O)O [HKFY-68, (S)-2-((R)-2-((S)-2-((S)-2-amino-3-(1-benzhydryl-1H-imidazol-4-yl)propanamido)-6-octanamidohexanamido)-3-(p-tolyl)propanamido)-3-(4-hydroxy-3-nitrophenyl)propanoic acid] (H-[His(τ-CHPh2)]K(Octanoyl)[dPhe(4-Me)][Tyr(3-NO2)]-OH)  10.8 ± 1.41 fold induction over basal
4. CCCCCCCC(=O)NCCCC[C@H](NC(=O)[C@H](Cc1c[nH]c2ccccc12)NC(=O)OC(C)(C)C)C(=O)N[C@H](Cc1ccc(C)cc1)C(=O)N[C@@H](Cc1ccc(O)cc1)C(=O)O [HKFY-78, ((R)-2-((S)-2-((S)-2-((tert-butoxycarbonyl)amino)-3-(1H-indol-3-yl)propanamido)-6-octanamidohexanamido)-3-(p-tolyl)propanoyl)-L-tyrosine] (Boc-WK(Octanoyl)[dPhe(4-Me)]Y-OH)  11.4 ± 1.54 fold induction over basal
5. CCCCCCCC(=O)NCCCC[C@H](NC(=O)[C@@H](N)Cc1cn(Cc2ccc(-c3ccccc3-c3nnn[nH]3)cc2)cn1)C(=O)N[C@H](Cc1ccc(C)cc1)C(=O)N[C@@H](Cc1ccc(O)cc1)C(=O)O [HKFY-77, ((R)-2-((S)-2-((S)-3-(1-((2′-(1H-tetrazol-5-yl)-[1,1′-biphenyl]-4-yl)methyl)-1H-imidazol-4-yl)-2-aminopropanamido)-6-octanamidohexanamido)-3-(p-tolyl)propanoyl)-L-tyrosine]  11.6 ± 2.14 fold induction over basal
6. C[C@H](NC(=O)[C@H](CCC(N)=O)NC(=O)[C@H](CCC(N)=O)NC(=O)[C@H](CC(=O)O)NC(=O)[C@H](Cc1ccc(O)cc1)NC(=O)[C@H](Cc1ccccc1)NC(=O)[C@@H](N)Cc1cn(C(c2ccccc2)(c2ccccc2)c2ccccc2)cn1)C(=O)N[C@@H](CCCNC(=N)N)C(=O)N[C@@H](Cc1ccccc1)C(N)=O [HKFY-52, (6S,9S,12S,15S,18S)-1-amino-6-(((S)-1-amino-1-oxo-3-phenylpropan-2-yl)carbamoyl)-18-((S)-2-((S)-2-((S)-2-amino-3-(1-trityl-1H-imidazol-4-yl)propanamido)-3-phenylpropanamido)-3-(4-hydroxyphenyl)propanamido)-12,15-bis(3-amino-3-oxopropyl)-1-imino-9-methyl-8,11,14,17-tetraoxo-2,7,10,13,16-pentaazaicosan-20-oic acid] (H-[His(Trt)]FYDQQARF-NH2)  15.5 ± 2.2 fold induction over basal
7. CCCCCCCC(=O)NCCCC[C@H](NC(=O)[C@@H](N)CC1=CNCN1CCC1CCCCC1)C(=O)N[C@@H](Cc1ccccc1)C(=O)N[C@@H](Cc1ccc(O)cc1)C(=O)O [HKFY-7, N2-((S)-2-amino-3-(3-(2-cyclohexylethyl)-2,3-dihydro-1H-imidazol-4-yl)propanoyl)-N6-octanoyl-L-lysyl-L-phenylalanyl-L-tyrosine]  16 ± 2.2 fold induction over basal
8. CCCCCCCC(=O)NCCCC[C@H](NC(=O)[C@@H](N)Cc1cn(C(c2ccccc2)c2ccc(OC)cc2)cn1)C(=O)N[C@H](Cc1ccc(C)cc1)C(=O)N[C@@H](Cc1ccc(O)cc1)C(=O)O (stereo partly drawn) [HKFY-64, ((2R)-2-((2S)-2-((2S)-2-amino-3-(1-((4-methoxyphenyl)(phenyl)methyl)-1H-imidazol-4-yl)propanamido)-6-octanamidohexanamido)-3-(p-tolyl)propanoyl)-L-tyrosine]  16 ± 1.5 fold induction over basal
9. CCCCCCCC(=O)NCCCC[C@H](NC(=O)[C@H](N)Cc1cn(C(c2ccccc2)(c2ccccc2)c2ccccc2)cn1)C(=O)N[C@@H](Cc1ccccc1)C(=O)N[C@@H](Cc1ccc(O)cc1)C(=O)O [HKFY-4, N6-octanoyl-N2-(Nt-trityl-D-histidyl)-L-lysyl-L-phenylalanyl-L-tyrosine] (H-[dHis(Trt)]K(Octanoyl)FY-OH)  16.8 ± 1.87 fold induction over basal
10. CCCCCCCC(=O)NCCCC[C@H](NC(=O)[C@@H](N)Cc1cn([C@H](c2ccccc2)c2ccc(Cl)cc2)cn1)C(=O)N[C@@H](Cc1ccccc1)C(=O)N[C@@H](Cc1ccc(O)cc1)C(=O)O [HKFY-21, N2-(Nt-((R)-(4-chlorophenyl)(phenyl)methyl)-L-histidyl)-N6-octanoyl-L-lysyl-L-phenylalanyl-L-tyrosine]  18.3 ± 2.5 fold induction over basal
11. CCCCCCCC(=O)NCCCC[C@H](NC(=O)[C@@H](N)Cc1cn(C(c2ccccc2)c2ccc(O)cc2)cn1)C(=O)N[C@H](Cc1ccc(C)cc1)C(=O)N[C@@H](Cc1ccc(O)cc1)C(=O)O (stereo partly drawn) [HKFY-65, ((2R)-2-((2S)-2-((2S)-2-amino-3-(1-((4-hydroxyphenyl)(phenyl)methyl)-1H-imidazol-4-yl)propanamido)-6-octanamidohexanamido)-3-(p-tolyl)propanoyl)-L-tyrosine]  18.3 ± 2.2 fold induction over basal
12. CCCCCCCCCCCCCC(=O)NCCCC[C@H](NC(=O)[C@@H](N)Cc1cn(C(c2ccccc2)(c2ccccc2)c2ccccc2)cn1)C(=O)N[C@@H](Cc1ccccc1)C(=O)N[C@@H](Cc1ccc(O)cc1)C(=O)O [HKFY-26, N6-tetradecanoyl-N2-(Nt-trityl-L-histidyl)-L-lysyl-L-phenylalanyl-L-tyrosine] (H-[His(Trt)]K(Myristoyl)FY-OH)  19.82 ± 0.57 fold induction over basal
13. CCCCCCCC(=O)NCCCC[C@H](NC(=O)[C@@H](N)Cc1cn(CCC(c2ccccc2)c2ccccc2)cn1)C(=O)N[C@@H](Cc1ccccc1)C(=O)N[C@@H](Cc1ccc(O)cc1)C(=O)O [HKFY-17]  20 ± 0.57 fold induction over basal
14. CCCCCCCC(=O)NCCCC[C@H](NC(=O)[C@H](N)Cc1cn(C(c2ccccc2)(c2ccccc2)c2ccccc2)cn1)C(=O)N[C@H](Cc1ccc(C)cc1)C(=O)N[C@@H](Cc1ccc(O)cc1)C(=O)O [HKFY-31, ((R)-2-((S)-2-((R)-2-amino-3-(1-trityl-1H-imidazol-4-yl)propanamido)-6-octanamidohexanamido)-3-(p-tolyl)propanoyl)-L-tyrosine] (H-[dHis(Trt)]K(Octanoyl)[dPhe(4-Me)]Y-OH)  20.9 ± 2.51 fold induction over basal
15. CCCCCCCC(=O)NCCCC[C@H](NC(=O)[C@H](Cc1cn(C(c2ccccc2)(c2ccccc2)c2ccccc2)cn1)NC(=O)CCCC[C@@H]1SC[C@@H]2NC(=O)N[C@@H]21)C(=O)N[C@@H](Cc1ccc(-c2ccccc2)cc1)C(=O)N[C@@H](Cc1ccc(O)cc1)C(=O)O [HKFY-45, ((S)-3-([1,1′-biphenyl]-4-yl)-2-((S)-6-octanamido-2-((S)-2-(5-((3aS,4S,6aR)-2-oxohexahydro-1H-thieno[3,4-d]imidazol-4-yl)pentanamido)-3-(1-trityl-1H-imidazol-4-yl)propanamido)hexanamido)propanoyl)-L-tyrosine] (Biotin-[His(Trt)]K(Octanoyl)[Bip]Y-OH)  21 ± 2.58 fold induction over basal

same assay, conditions: CV-1 cells, GPR39 and SRE luciferase adenovirus, 6 hours treatment

With CCCCCCCC(=O)NCCCC[C@H](NC(=O)[C@@H](N)Cc1cn(C(c2ccccc2)(c2ccccc2)c2ccccc2)cn1)C(=O)N[C@@H](Cc1ccccc1)C(=O)N[C@@H](Cc1ccc(O)cc1)C(=O)N[C@@H](CO)C(=O)N[C@@H](CCC(N)=O)C(=O)N[C@@H](CC(=O)O)C(=O)NCC(=O)N[C@@H](C)C(=O)N[C@@H](CCCNC(=N)N)C(=O)N[C@@H](Cc1ccccc1)C(N)=O [HKFY-41, (3S,6S,9S,12S,15S,18S)-3-((2-(((S)-1-(((S)-1-(((S)-1-amino-1-oxo-3-phenylpropan-2-yl)amino)-5-guanidino-1-oxopentan-2-yl)amino)-1-oxopropan-2-yl)amino)-2-oxoethyl)carbamoyl)-18-((S)-2-amino-3-(1-trityl-1H-imidazol-4-yl)propanamido)-6-(3-amino-3-oxopropyl)-15-benzyl-12-(4-hydroxybenzyl)-9-(hydroxymethyl)-5,8,11,14,17,24-hexaoxo-4,7,10,13,16,23-hexaazahentriacontanoic acid] (H-[His(Trt)]K(Octanoyl)FYSQDGARF-NH2) the “ECmax (−fold induction over basal)” value was 12.2 ± 0.02 fold induction over basal.

same assay, conditions: comment on Table 3

CCCCCCCC(=O)NCCCC[C@H](NC(=O)[C@@H](N)Cc1cn(C(c2ccccc2)c2ccc(OC)cc2)cn1)C(=O)N[C@H](Cc1ccc(C)cc1)C(=O)N[C@@H](Cc1ccc(O)cc1)C(=O)O (stereo partly drawn) [HKFY-64, ((2R)-2-((2S)-2-((2S)-2-amino-3-(1-((4-methoxyphenyl)(phenyl)methyl)-1H-imidazol-4-yl)propanamido)-6-octanamidohexanamido)-3-(p-tolyl)propanoyl)-L-tyrosine] was tested, and the “activity level for GPR39 (in words)” value was “higher activity level than other HKFY derivatives”.
CCCCCCCC(=O)NCCCC[C@H](NC(=O)[C@@H](N)Cc1cn(C(c2ccccc2)c2ccc(O)cc2)cn1)C(=O)N[C@H](Cc1ccc(C)cc1)C(=O)N[C@@H](Cc1ccc(O)cc1)C(=O)O (stereo partly drawn) [HKFY-65, ((2R)-2-((2S)-2-((2S)-2-amino-3-(1-((4-hydroxyphenyl)(phenyl)methyl)-1H-imidazol-4-yl)propanamido)-6-octanamidohexanamido)-3-(p-tolyl)propanoyl)-L-tyrosine] was tested, and the “activity level for GPR39 (in words)” value was “higher activity level than other HKFY derivatives”.

From US20250340591A1, “COMPOSITION FOR PREVENTING OR TREATING INFLAMMATORY BOWEL DISEASE CONTAINING NOVEL COMPOUND” (ANYGEN CO., LTD., priority 2021, published 2025)
